The NIST ThermoML archive (doi:10.1016/j.fluid.2019.112248)
“And” between values parts separate entries of the source, which are not always exact repeats. Identical values can stand only once. Numbers after ± are expanded uncertainties.

Assays:
[1] = molar heat capacity at constant pressure; settings: 101.33 kPa, Liquid, DSC
[2] = Molar enthalpy of transition or fusion; settings: DSC
[3] = Boiling temperature at pressure P; settings: 100 kPa; Glass; DTA
[4] = for vapor or sublimation pressure: Liquid, Closed cell (Static) method; for Normal melting temperature: DTA

Row | SMILES | molar heat capacity at constant pressure ([1]; 265 K) [J/K/mol] | molar heat capacity at constant pressure ([1]; 270 K) [J/K/mol] | molar heat capacity at constant pressure ([1]; 275 K) [J/K/mol] | molar heat capacity at constant pressure ([1]; 280 K) [J/K/mol] | molar heat capacity at constant pressure ([1]; 285 K) [J/K/mol] | molar heat capacity at constant pressure ([1]; 290 K) [J/K/mol] | molar heat capacity at constant pressure ([1]; 295 K) [J/K/mol] | molar heat capacity at constant pressure ([1]; 300 K) [J/K/mol] | molar heat capacity at constant pressure ([1]; 305 K) [J/K/mol] | molar heat capacity at constant pressure ([1]; 310 K) [J/K/mol] | molar heat capacity at constant pressure ([1]; 315 K) [J/K/mol] | molar heat capacity at constant pressure ([1]; 320 K) [J/K/mol] | molar heat capacity at constant pressure ([1]; 325 K) [J/K/mol] | molar heat capacity at constant pressure ([1]; 330 K) [J/K/mol] | molar heat capacity at constant pressure ([1]; 335 K) [J/K/mol] | molar heat capacity at constant pressure ([1]; 340 K) [J/K/mol] | molar heat capacity at constant pressure ([1]; 345 K) [J/K/mol] | molar heat capacity at constant pressure ([1]; 350 K) [J/K/mol] | molar heat capacity at constant pressure ([1]; 355 K) [J/K/mol] | vapor or sublimation pressure ([4]; 273.7 K) | also measured
1 | C=CCc1ccc(O)c(OC)c1 [2-hydroxy-5-allylanisole] | 311.2 ± 12 | 312.8 ± 12 | 314.5 ± 12 | 315.8 ± 12 | 317.4 ± 12 | 319.2 ± 12 | 321 ± 12 | 322.9 ± 12 | 324.8 ± 13 | 326.4 ± 13 | 328.2 ± 13 | 329.9 ± 13 | 331.7 ± 13 | 333.3 ± 13 | 334.8 ± 13 | 336.1 ± 13 | 337.1 ± 13 | 338.2 ± 13 | 339.1 ± 13 | 0.000153 ± 0.00014 kPa and 0.000152 ± 0.00014 kPa | Molar enthalpy of transition or fusion ([2]; Crystal 1): 4.06 ± 0.263 kcal/mol; Molar enthalpy of transition or fusion ([2]; Crystal 2): 2.01 ± 0.143 kcal/mol; Boiling temperature at pressure P [3]: -81.7 ± 0.3 °C; vapor or sublimation pressure ([4]; 278.19 K): 0.000252 ± 0.00014 kPa and 0.000251 ± 0.00014 kPa; vapor or sublimation pressure ([4]; 283.19 K): 0.000451 ± 0.00014 kPa and 0.000443 ± 0.00014 kPa and 0.000444 ± 0.00014 kPa; vapor or sublimation pressure ([4]; 288.19 K): 0.000724 ± 0.00015 kPa and 0.000725 ± 0.00015 kPa and 0.000723 ± 0.00015 kPa; vapor or sublimation pressure ([4]; 293.2 K): 0.001256 ± 0.00016 kPa and 0.001233 ± 0.00016 kPa and 0.001223 ± 0.00016 kPa; vapor or sublimation pressure ([4]; 298.2 K): 0.00193 ± 0.00017 kPa and 0.001938 ± 0.00017 kPa and 0.001934 ± 0.00017 kPa; vapor or sublimation pressure ([4]; 303.2 K): 0.00307 ± 0.0002 kPa and 0.003081 ± 0.0002 kPa and 0.003077 ± 0.0002 kPa; vapor or sublimation pressure ([4]; 308.2 K): 0.004871 ± 0.00025 kPa; vapor or sublimation pressure ([4]; 308.21 K): 0.004864 ± 0.00025 kPa and 0.004868 ± 0.00025 kPa; Normal melting temperature ([4]; Crystal 1): -11.3 ± 0.5 °C; Normal melting temperature ([4]; Crystal 2): -28.5 ± 0.5 °C
2 | C=C(C)[C@H]1CC=C(C)C(=O)C1 [d-carvone] | 264.9 ± 10 | 266.7 ± 10 | 268.7 ± 10 | 270.6 ± 10 | 272.9 ± 11 | 275.2 ± 11 | 277.7 ± 11 | 280.3 ± 11 | 282.7 ± 11 | 284.9 ± 11 | 287.1 ± 11 | 289.5 ± 11 | 292.1 ± 11 | 294.3 ± 11 | 296.5 ± 12 | 298.2 ± 12 | 299.7 ± 12 | 301.1 ± 12 | 302 ± 12 | 0.001141 ± 0.00015 kPa | Molar enthalpy of transition or fusion ([2]; Crystal): 2.68 ± 0.0956 kcal/mol; vapor or sublimation pressure ([4]; 258.18 K): 0.000197 ± 0.00013 kPa and 0.000202 ± 0.00013 kPa and 0.000201 ± 0.00013 kPa; vapor or sublimation pressure ([4]; 263.19 K): 0.000371 ± 0.00014 kPa and 0.000373 ± 0.00014 kPa; vapor or sublimation pressure ([4]; 268.18 K): 0.000653 ± 0.00014 kPa and 0.000656 ± 0.00014 kPa; vapor or sublimation pressure ([4]; 268.19 K): 0.000653 ± 0.00014 kPa; vapor or sublimation pressure ([4]; 273.19 K): 0.001096 ± 0.00015 kPa and 0.001097 ± 0.00015 kPa; vapor or sublimation pressure ([4]; 273.69 K): 0.001133 ± 0.00015 kPa and 0.001138 ± 0.00015 kPa; vapor or sublimation pressure ([4]; 278.19 K): 0.001788 ± 0.00016 kPa and 0.001789 ± 0.00016 kPa and 0.00179 ± 0.00016 kPa; vapor or sublimation pressure ([4]; 283.19 K): 0.002902 ± 0.00019 kPa and 0.002899 ± 0.00019 kPa and 0.002893 ± 0.00019 kPa; vapor or sublimation pressure ([4]; 288.19 K): 0.004581 ± 0.00024 kPa; vapor or sublimation pressure ([4]; 288.2 K): 0.004579 ± 0.00024 kPa and 0.004587 ± 0.00024 kPa; vapor or sublimation pressure ([4]; 293.2 K): 0.007151 ± 0.00032 kPa and 0.007137 ± 0.00032 kPa; vapor or sublimation pressure ([4]; 298.2 K): 0.0109 ± 0.00045 kPa; vapor or sublimation pressure ([4]; 298.21 K): 0.0109 ± 0.00045 kPa; vapor or sublimation pressure ([4]; 303.2 K): 0.01637 ± 0.00058 kPa and 0.01638 ± 0.00058 kPa; vapor or sublimation pressure ([4]; 308.21 K): 0.02413 ± 0.00072 kPa and 0.02415 ± 0.00072 kPa; Normal melting temperature ([4]; Crystal): -26.4 ± 0.5 °C
